{"source": "patent US20240390408A1", "about": "“METHOD OF TREATING HEPATITIS C VIRUS IN PATIENTS” (Altesa BioSciences, Inc., priority 2023, published 2024)", "test": "Tissue concentrations of Formula I and its metabolites in Göttingen pigs after a single oral or intravenous dose (LC-MS/MS)", "assay_type": "in vivo", "details": "for concentration at 24 h / concentration at 12 h / concentration at 3 h / concentration at 2 h: both sexes, Göttingen, pig (minipig)", "method": "Tissue samples were collected at 3, 12, and 24 hours post-dose (hpd) for the oral dose and 2 and 12 hpd for the intravenous dose, snap-frozen in liquid nitrogen, and stored at −60 to −90° C. until shipment on dry ice for analysis by LC-MS/MS.\nAnimals were weighed the day prior to dosing to determine the dosing volume.\nThe compound of Formula I was dissolved in a PEG 400/DI water (60%/40% v/v) vehicle for oral dosing. For IV dosing the compound of Formula I was dissolved in a PEG 400/Cremophor RH 40/Saline (40%/10%/50% v/v) vehicle and passed through a sterile filter. […] Animals were euthanized by euthanasia solution administration under sedation, if necessary (e.g., acepromazine and or/Telazol®), followed by a Testing Facility SOP approved method to ensure death (e.g., exsanguination). Tissues were collected from two animals per sex per timepoint. Tissue samples, including the brain, heart, kidney, liver, lung, spleen, pancreas, bone marrow, duodenum, jejunum, and colon, were collected in duplicate (approximately 50±20 mg each) and placed into two separate reinforced homogenization tubes per organ (one tissue sample per tube). The exact weight (in milligrams) of each sample was recorded. Tissues samples were flash frozen in liquid nitrogen and stored at −60 to −90° C. until shipment on dry ice for analysis by LC-MS/MS.\nMobile phase A consisted of 50 mM ammonium bicarbonate buffer in HPLC grade water pH 9.8 and mobile phase B consisted of pure acetonitrile. […] Mass spectrometry analysis was performed on a QTrap 7500 Mass Spectrometer (Sciex, Framingham, MA, USA) using negative mode electrospray ionization (ESI) in multiple reaction monitoring (MRM) mode. Data analysis was performed using SCIEX OS Software (Sciex, Framingham, MA, USA).\nTissue samples were collected at 3, 12, and 24 hours post-dose for the oral dose and 2 and 12 hour post-dose for the intravenous dose.", "key": {"[1]": {"details": "single intravenous bolus of Formula I 25 mg/kg, 2 hpd"}, "[2]": {"details": "single intravenous bolus of Formula I 25 mg/kg, 12 hpd"}, "[3]": {"details": "single oral dose of Formula I 125 mg/kg, 3 hpd"}, "[4]": {"details": "single oral dose of Formula I 125 mg/kg, 12 hpd"}, "[5]": {"details": "single oral dose of Formula I 125 mg/kg, 24 hpd"}, "[6]": {"details": "liver, single oral dose of Formula I 125 mg/kg, 3 hpd"}}, "note": "Read-outs that look alike come from different tables or passages of the source."}
{"smiles": "CC1(O)[C@@H](O)[C@@H](COP(=O)(O)O)O[C@H]1n1ccc(=O)[nH]c1=S", "note": "(stereo partly drawn) [Formula III]", "values": [{"measurement": "Exposure in the lung and spleen, fold lower than liver and kidneys", "setting": "after PO dosing with Formula I", "result": "about 10 fold"}, {"measurement": "concentration at 24 h", "setting": "125 mg/kg, liver and kidney, 24 hpd after oral dosing with Formula I, read-out: Concentration measurable in the liver and kidney", "result": "~500", "unit": "nM"}, {"measurement": "concentration at 12 h", "setting": "kidney, single intravenous bolus of Formula I 25 mg/kg, 12 hpd, read-out: Tissue concentration, kidney", "result": "276 ± 78.1", "unit": "ng/g"}, {"measurement": "concentration at 3 h", "setting": "kidney, single oral dose of Formula I 125 mg/kg, 3 hpd, read-out: Tissue concentration, kidney", "result": "14100 ± 5050", "unit": "ng/g"}, {"measurement": "concentration at 12 h", "setting": "kidney, single oral dose of Formula I 125 mg/kg, 12 hpd, read-out: Tissue concentration, kidney", "result": "824 ± 432", "unit": "ng/g"}, {"measurement": "concentration at 24 h", "setting": "kidney, single oral dose of Formula I 125 mg/kg, 24 hpd, read-out: Tissue concentration, kidney", "result": "85.5 ± 18.1", "unit": "ng/g"}, {"measurement": "concentration at 2 h", "setting": "liver, single intravenous bolus of Formula I 25 mg/kg, 2 hpd, read-out: Tissue concentration, liver", "result": "13100 ± 3070", "unit": "ng/g"}, {"measurement": "concentration at 12 h", "setting": "liver, single intravenous bolus of Formula I 25 mg/kg, 12 hpd, read-out: Tissue concentration, liver", "result": "62.7 ± 77.7", "unit": "ng/g"}, {"measurement": "concentration at 12 h", "setting": "liver, single oral dose of Formula I 125 mg/kg, 12 hpd, read-out: Tissue concentration in Göttingen pig liver (Table 7)", "result": "1640 ± 924", "unit": "nM"}, {"measurement": "concentration at 12 h", "setting": "liver, single oral dose of Formula I 125 mg/kg, 12 hpd, read-out: Tissue concentration, liver", "result": "582 ± 328", "unit": "ng/g"}, {"measurement": "concentration at 24 h", "setting": "liver, single oral dose of Formula I 125 mg/kg, 24 hpd, read-out: Tissue concentration in Göttingen pig liver (Table 7)", "result": "537 ± 229", "unit": "nM"}, {"measurement": "concentration at 24 h", "setting": "liver, single oral dose of Formula I 125 mg/kg, 24 hpd, read-out: Tissue concentration, liver", "result": "190 ± 81", "unit": "ng/g"}, {"measurement": "concentration at 2 h", "setting": "lung, single intravenous bolus of Formula I 25 mg/kg, 2 hpd, read-out: Tissue concentration, lung", "result": "2040 ± 883", "unit": "ng/g"}, {"measurement": "concentration at 12 h", "setting": "lung, single intravenous bolus of Formula I 25 mg/kg, 12 hpd, read-out: Tissue concentration, lung", "result": "357 ± 207", "unit": "ng/g"}, {"measurement": "concentration at 3 h", "setting": "lung, single oral dose of Formula I 125 mg/kg, 3 hpd, read-out: Tissue concentration, lung", "result": "303 ± 94.4", "unit": "ng/g"}, {"measurement": "concentration at 12 h", "setting": "lung, single oral dose of Formula I 125 mg/kg, 12 hpd, read-out: Tissue concentration, lung", "result": "55.2 ± 64.6", "unit": "ng/g"}, {"measurement": "concentration at 2 h", "setting": "spleen, single intravenous bolus of Formula I 25 mg/kg, 2 hpd, read-out: Tissue concentration, spleen", "result": "240 ± 28.3", "unit": "ng/g"}, {"measurement": "concentration at 12 h", "setting": "spleen, single intravenous bolus of Formula I 25 mg/kg, 12 hpd, read-out: Tissue concentration, spleen", "result": "58.9 ± 14.7", "unit": "ng/g"}, {"measurement": "concentration at 3 h", "setting": "spleen, single oral dose of Formula I 125 mg/kg, 3 hpd, read-out: Tissue concentration, spleen", "result": "118 ± 10.8", "unit": "ng/g"}, {"measurement": "Tissue concentration, brain", "setting": "[1]", "result": "BQL"}, {"measurement": "Tissue concentration, brain", "setting": "[2]", "result": "BQL"}, {"measurement": "Tissue concentration, brain", "setting": "[3]", "result": "BQL"}, {"measurement": "Tissue concentration, brain", "setting": "[4]", "result": "BQL"}, {"measurement": "Tissue concentration, brain", "setting": "[5]", "result": "BQL"}, {"measurement": "Tissue concentration, heart", "setting": "[1]", "result": "89.9 ± 65.5", "unit": "ng/g"}, {"measurement": "Tissue concentration, heart", "setting": "[2]", "result": "BQL"}, {"measurement": "Tissue concentration, heart", "setting": "[3]", "result": "34.0 ± 39.9", "unit": "ng/g"}, {"measurement": "Tissue concentration, heart", "setting": "[4]", "result": "BQL"}, {"measurement": "Tissue concentration, heart", "setting": "[5]", "result": "BQL"}, {"measurement": "Tissue concentration, kidney", "setting": "kidney, single intravenous bolus of Formula I 25 mg/kg, 2 hpd", "result": "above the limit of quantitation and AQL"}, {"measurement": "Tissue concentration, kidney", "setting": "kidney, single oral dose of Formula I 125 mg/kg, 3 hpd", "result": "14100 ± 5050^ ng/g"}, {"measurement": "Tissue concentration, kidney", "setting": "kidney, single oral dose of Formula I 125 mg/kg, 24 hpd", "result": "85.5 ± 18.1", "unit": "ng/g"}, {"measurement": "Tissue concentration, liver", "setting": "liver, single intravenous bolus of Formula I 25 mg/kg, 2 hpd", "result": "13100 ± 3070", "unit": "ng/g"}, {"measurement": "Tissue concentration in Göttingen pig liver (Table 7)", "setting": "[6]", "result": "AQL"}, {"measurement": "Tissue concentration, liver", "setting": "[6]", "result": "above the limit of quantitation and AQL"}, {"measurement": "Tissue concentration, liver", "setting": "liver, single oral dose of Formula I 125 mg/kg, 24 hpd", "result": "190 ± 81.0", "unit": "ng/g"}, {"measurement": "Tissue concentration, lung", "setting": "lung, single intravenous bolus of Formula I 25 mg/kg, 12 hpd", "result": "357 ± 207", "unit": "ng/g"}, {"measurement": "Tissue concentration, lung", "setting": "lung, single oral dose of Formula I 125 mg/kg, 24 hpd", "result": "BQL"}, {"measurement": "Tissue concentration, spleen", "setting": "spleen, single intravenous bolus of Formula I 25 mg/kg, 12 hpd", "result": "58.9 ± 14.7", "unit": "ng/g"}, {"measurement": "Tissue concentration, spleen", "setting": "spleen, single oral dose of Formula I 125 mg/kg, 3 hpd", "result": "118 ± 10.8", "unit": "ng/g"}, {"measurement": "Tissue concentration, spleen", "setting": "spleen, single oral dose of Formula I 125 mg/kg, 12 hpd", "result": "BQL"}, {"measurement": "Tissue concentration, spleen", "setting": "spleen, single oral dose of Formula I 125 mg/kg, 24 hpd", "result": "BQL"}]}
